Experimental data reported in publication PMC8131206 (Nature biomedical engineering, 2021).
Where no end group is shown, it is not given here.

Columns and labels:
S. enterica CDC 6516–60 = conditions: CDC 6516–60, 24 h
A. baumannii 2208 = conditions: 2208, 24 h
E. coli DH5α = conditions: 24 h
S. aureus (MS) NRS72 = conditions: MS) NRS72, 24 h
[1] = system: M. tuberculosis H37Ra (attenuated); conditions: 96 h
S. aureus (MR) USA300 = conditions: USA300, 24 h
K. pneumoniae NCTC 9633 = conditions: NCTC 9633, 24 h
S. aureus (MS) Newman = conditions: 24 h
P. aeruginosa PAO1 = conditions: PAO1, 24 h
H. influenzae TD-4 = conditions: TD-4, 24 h
E. faecalis ATCC 29212 = conditions: ATCC 29212, 24 h
S. mitis NCTC 12261 = conditions: NCTC 12261, 24 h
M. smegmatis Mc^2 155 = conditions: Mc^2 155, 48 h

Row | Substance | MIC (S. enterica CDC 6516–60) | MIC (A. baumannii 2208) | MIC (E. coli DH5α) | MIC (S. aureus (MS) NRS72) | MIC [1] | MIC (S. aureus (MR) USA300) | MIC (K. pneumoniae NCTC 9633) | MIC (S. aureus (MS) Newman) | MIC (P. aeruginosa PAO1) | MIC (H. influenzae TD-4) | MIC (E. faecalis ATCC 29212) | MIC (S. mitis NCTC 12261) | MIC (M. smegmatis Mc^2 155)
1 | KRWWKWWRR-NH2 [AMP2] | 80 µM | 80 µM | 80 µM | 80 µM | 10 µM | 80 µM | 20 µM | 40 µM | 20 µM | 80 µM | >80 µM | >80 µM | 20 µM
2 | RRWWRWVVW-NH2 [AMP3] | 80 µM | 10 µM | >80 µM | 20 µM | 20 µM | 20 µM | 2.5 µM | 20 µM | 80 µM | – | 80 µM | – | 20 µM
3 | WKWLKKWIK-NH2 [AMP1] | 40 µM | 25 µM | >80 µM | >80 µM | 20 µM | >80 µM | 20 µM | 80 µM | 10 µM | 80 µM | 80 µM | 20 µM | 20 µM
